From patent US20230190731A1, “FORMULATION COMPRISING HIF PROLYL HYDROXYLASE INHIBITORS” (ZYDUS LIFESCIENCES LIMITED, priority 2020, published 2023)

How the values were obtained:
[1] = system: hypoxia inducible factor (HIF) prolyl hydroxylase; assay: Inhibition of hypoxia inducible factor (HIF) prolyl hydroxylase (statement only); assay type: biochemical
[2] = Solubility of compounds of formula (Ia) in various media; assay type: physicochemical

Question: With O=C(O)CNC(=O)c1c(O)c2ccccc2n(OCC2CC2)c1=O [Compound (Ia)] as the compound, how does the “inhibitor of HIF prolyl hydroxylase” value [1] read?
Answer: potent inhibitor

Question: What about the solubility ([2]; in 0.1 N HCL) of the same compound?
Answer: insoluble

Question: What about the solubility ([2]; in N,N-dimethyl formamide) of the same compound?
Answer: freely soluble

Question: What about the solubility ([2]; in alkaline aqueous condition) of the same compound?
Answer: soluble

Question: What about the solubility ([2]; in water) of the same compound?
Answer: partially soluble
